Patent US7601739B2, “Compounds having antiestrogenic and tissue selective estrogenic properties, and compounds with anti-androgenic properties for treatment of prostate cancer and androgen receptor dependent diseases” (Virgina Commonwealth University, priority 2006, dated 2009)

How the values were obtained:
[1] = target: T1, hERα (Homo sapiens, UniProt P03372); experiment: Transient transfection reporter assay for hERα in MCF-7 cells; type: cell-based; parameters: Relative Estrogenic Activity: dose or concentration left out as unconfirmed
T1 construct: mammalian expression plasmid containing full length human ER cDNA, pCMV-hER; expressed in transfected cells; host or cells: MCF-7 human breast cancer cells
T1 sequence (P03372 1-595): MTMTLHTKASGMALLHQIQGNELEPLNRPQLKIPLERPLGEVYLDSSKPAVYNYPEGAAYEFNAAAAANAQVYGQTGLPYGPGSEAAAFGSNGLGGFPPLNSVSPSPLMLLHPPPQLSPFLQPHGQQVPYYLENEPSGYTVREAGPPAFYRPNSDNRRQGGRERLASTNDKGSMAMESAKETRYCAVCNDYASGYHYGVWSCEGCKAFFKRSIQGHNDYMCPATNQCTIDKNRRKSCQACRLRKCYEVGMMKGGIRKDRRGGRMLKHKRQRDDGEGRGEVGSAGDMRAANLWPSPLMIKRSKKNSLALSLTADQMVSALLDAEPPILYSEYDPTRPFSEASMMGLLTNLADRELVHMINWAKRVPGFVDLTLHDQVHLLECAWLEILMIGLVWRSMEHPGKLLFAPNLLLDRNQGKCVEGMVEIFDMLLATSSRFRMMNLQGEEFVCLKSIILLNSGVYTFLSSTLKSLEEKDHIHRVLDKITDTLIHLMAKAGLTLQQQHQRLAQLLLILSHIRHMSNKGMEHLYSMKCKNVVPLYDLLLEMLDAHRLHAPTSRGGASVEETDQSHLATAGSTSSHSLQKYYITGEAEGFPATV
Procedure: For the transient transfection reporter assays, the cells were plated in triplicate in 12-well plates at a density of 300000 cells/well in the phenol red-free DMEM (GIBCO/BRL, Grand Island, N.Y.) supplemented with 10% charcoal-stripped fetal bovine serum (Hyclone, Logan, Utah), Penicillin (100 unit/ml)/Streptomycin ([…]), 2 mML-glutamine and 1 mM sodium Pyruvate. 24 hrs later, the cells were transfected with three plasmids by using Superfect transfection kit (Qiagen, Valencia, Calif.). For the detection of hER activity, cells were transfected with 2 g hER expression plasmid (pCMV-ER ), 6 g luciferase reporter plasmid containing estrogen receptor response element (PGL-TATA-Luc), and 600 ng normalization control, β-galactosidase reporter plasmid (pCMV ). For the detection of hER activity, cells were transfected with 3 ug hER expression plasmid (pcDNA3.1-hER), 6 g luciferase reporter plasmid containing estrogen receptor response element (PGL-TATA-Luc), and 600 ng pCMV. For determining the influence of ER's major coactivator in breast, AIB 1, 2 g pcDNA3.1-AIB1 was added into the transfection plasmid solution mentioned previously.
The transfected cells were rinsed with PBS and treated with various concentrations of test molecules and one […] (vehicle, DMSO or methanol) in phenol red-free culture medium. After incubation for further 24 hrs, the cells were washed with PBS and lysed with lysis buffer (Pierce, Rockford, Ill.). The lysate was used to determine the luciferase activity for ER's activity and the β-galactosidase activity for the normalization of transfection efficiency.
For the luciferase activity assay, 20 μl of lysate and 100 μl luciferase assay buffer (Promega, Madison, Wis.) were added into a well of 96-well plate. The luminescence was detected by using luminescence microplate reader, LumiCount (Packard, Boston, Mass.). For the β-galactosidase activity assay, […] β-galactosidase assay buffer (Clontech, Palo Alto, Calif.) were added into a well of 96-well plate. The β-galactosidase activity was measured as luminescence strength by using luminescence microplate reader, LumiCount (Packard, Boston, Mass.). The normalized reporter activity was calculated by the luciferase activity divided by that of β-galactosidase.
The transient transfection reporter assay was used to determine the estrogenic or antiestrogenic activity of tested compounds in employed human breast cancer cells, MCF-7 cells that are cotransfected with hERα expression and reporter plasmids. […] […] The estrogenic (antiestrogenic) activity was determined by dividing the luciferase activity by the β-galactosidase activity. To determine the influence of estrogen receptor's major coactivator in breast cancer, AIB1, for the compounds' estrogenic activity, the expression vector of AIB1 was additionally cotransfected with the plasmids mentioned above.

[2] = test system: hER; experiment: Fluorescence-based competitive binding assay for hER (displacement of fluormone ES2); parameters: species or system human; settings: RBA = IC50 of tamoxifen/IC50 of test molecule; tamoxifen set at 1
Procedure: The estrogen receptor competitor assay kits (Panvera, Madison, Wis.) were used to determine the ability of test molecules to displace the fluormone, ES2, from hER -ES2 or hER -ES2 complex. Serial dilutions of each test molecule were prepared in methanol or DMSO. The recombinant hER or hER (7 nM) was preincubated with ES2 (1 nM) in screening buffer. After the preincubation, the test molecules and ER-ES2 complex solution were added into the 96-well microplate to produce a final volume of 100 μl per well. The reaction was incubated at room temperature for 1 hr and the polarization values were measured by using fluorescence microplate reader, Polarion (Tecan, Research Triangle Park, N.C.) with excitation wavelength 495 nm and emission wavelength 535 nm. The polarization value versus test molecule concentration curves was analyzed by graphfit software to generate IC50 values.
In this assay, recombinant hER and the commercial synthetic estrogen, ES2 containing fluorescence polarization property, are used. This assay is a homogenous assay. When the assay solution only contains ES2, the solution exerts weak fluorescence polarization property due to the quick rotation of free ES2 molecule. […] Addition of the antiestrogen to the ES2/hER displaces ES2 from hER and results in the whole solution exerting less fluorescence polarization property than the solution without antiestrogen.

[3] = target: T2, hERα (Homo sapiens, UniProt P03372); experiment: Yeast two-hybrid and filter lift assay of hERα dimerization; type: cell-based
T2 construct: the full length hERα was inserted into pGAD-GAL4 and pGBD-GAL4 vectors; expressed in transfected cells; host or cells: S. cerevisiae Y190 transformed with pGBT-hER (pGBKT7) and pGAD-hER (pGADT7)
T2 sequence (P03372 1-595) 1: T1 sequence (P03372 1-595)
T2 sequence (P03372 1-595) 2: T1 sequence (P03372 1-595)
Procedure: The transformed yeasts with yeast two-hybrid vectors were cultured in synthetic medium lacking trytophan, and leucine. […] After that, the membranes were soaked in 0.4 ml Z-buffer/Xgal (60 mM Na2HPO4, 40 mM NaH2PO410 mM KCl, 1 mM MgSO4, 0.1% SDS, 50 mM -mercaptoethanol, 20 mM Xgal). The pictures of the results were taken within 2 and 3 hours after the -galactosidase assay was processed.
Dimerization of estrogen receptor plays an essential role in regulating estrogen receptor's functions including DNA binding, transactivation, and coactivator recruitment. In this study, yeast two hybrid and filter lift assays were used to determine the ability of compounds 2 and 6 to interrupt the dimerization of hERα. For setting up yeast two hybrid assay, the full length hERα was inserted into pGAD-GAL4 and pGBD-GAL4 vectors. In pGBD-GAL4, hERα was fused to the GAL4 DNA binding domain through its N terminus. In pGAD-GA14, hERα was fused to the GAL4 activation domain through its N terminus. When the dimerization of hERα occurs mainly through its C terminus, the GAL4 DNA binding domain binds to the repeated GAL4 response element located in front of the β-gal reporter gene and the whole complex, GAL4-BD/hERα/hERα/GAL4-AD, turns on the synthesis of the product of β-gal reporter gene. […] Filter lift assay in which X-gal was used, was employed to qualitatively determine the activity of β-galactosidase.

[4] = test system: MCF-7 cells; experiment: hERα positive breast cancer cell proliferation assay; type: cell-based, human
Procedure: (§1) MCF-7 or MDA-MB-231 cells were inoculated into 12-well culture plates at 10000 cells in 2 ml maintained medium per well. Cells were allowed to attach to the bottom for 24 hrs incubation, then the seeding medium was removed and replaced by the experimental medium (phenol red-free DMEM supplemented with 5% charcoal-stripped fetal bovine serum and Penicillin (100 unit/ml)/Streptomycin ([…])). After 24 hr incubation, the test molecules dissolved in DMSO were added in the wells. […] The culture was continued for 3 days and the medium and tested compounds were replaced every two days. The final cell numbers were estimated with CellTiter proliferation assay kit (Promega, Madison, Wis.) by measuring the absorbance at 570 nm, which is directly proportional to the number of living cells in the culture.
MCF-7 cell line was used to perform this assay and the description of this assay as mentioned above. […] DMSO was used as reference.

[5] = test system: MDA-MB-231 cells; experiment: hER negative breast cancer cell proliferation assay; type: cell-based, human; settings: hER negative cell line
Procedure: as §1
In this assay, MDA-MB-231 breast cancer cell line, a hER negative cell line, was used. DMSO was used as reference.

[6] = target: T3, mutant hART877A (Homo sapiens, UniProt P10275, T878A); experiment: Transient transfection reporter assay in LNCaP cells expressing mutant hAR; type: cell-based
T3 construct: LNCaP cells expressing a novel mutant hART877A; endogenous in cells; host or cells: LNCaP prostate cancer cells (transfected only with reporter plasmids, as far as printed)
T3 sequence (P10275 1-920 T878A): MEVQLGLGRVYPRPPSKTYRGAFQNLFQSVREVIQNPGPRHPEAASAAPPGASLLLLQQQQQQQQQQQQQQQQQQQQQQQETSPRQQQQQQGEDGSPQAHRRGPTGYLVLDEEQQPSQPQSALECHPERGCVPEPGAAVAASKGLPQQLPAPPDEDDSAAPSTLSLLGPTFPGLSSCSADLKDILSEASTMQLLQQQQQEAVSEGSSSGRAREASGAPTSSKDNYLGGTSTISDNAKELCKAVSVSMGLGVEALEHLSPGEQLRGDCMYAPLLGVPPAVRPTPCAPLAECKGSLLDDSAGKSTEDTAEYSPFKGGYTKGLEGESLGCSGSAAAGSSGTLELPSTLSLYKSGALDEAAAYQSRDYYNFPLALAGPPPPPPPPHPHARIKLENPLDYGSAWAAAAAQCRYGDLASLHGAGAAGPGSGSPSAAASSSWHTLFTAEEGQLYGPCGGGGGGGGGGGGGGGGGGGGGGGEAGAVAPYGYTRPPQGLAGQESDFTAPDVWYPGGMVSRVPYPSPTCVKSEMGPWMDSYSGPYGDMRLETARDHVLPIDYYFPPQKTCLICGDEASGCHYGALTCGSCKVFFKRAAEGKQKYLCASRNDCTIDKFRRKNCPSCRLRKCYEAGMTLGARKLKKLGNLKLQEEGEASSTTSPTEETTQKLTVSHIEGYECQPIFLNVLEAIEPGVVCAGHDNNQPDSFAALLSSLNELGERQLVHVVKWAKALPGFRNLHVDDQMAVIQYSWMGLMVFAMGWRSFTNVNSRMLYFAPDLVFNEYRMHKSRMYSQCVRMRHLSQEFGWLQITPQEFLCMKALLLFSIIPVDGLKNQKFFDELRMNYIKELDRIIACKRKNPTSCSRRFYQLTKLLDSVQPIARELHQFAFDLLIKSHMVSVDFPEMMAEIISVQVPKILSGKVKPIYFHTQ
Source text: To determine the agonist and antagonist activity of these compounds, the transient transfection reporter assay in HepG2 cells were employed. […] Apart from the testing against wild type hAR, because hAR mutation is one of the important factors for antiandrogen-resistant symptoms discovered in advance prostate cancer patients, we also employed transient transfection reporter assay in the prostate cancer cell line, LNCaP cells expressing a novel mutant hART877A.

SMILES | Relative Estrogenic Activity ([1]; MCF-7 cells transfected with hERα, DMSO set as 1) | estrogenic effect ([1]; MCF-7 cells, hERα, compared with DMSO and tamoxifen) | Relative Antiestrogenic Activity at 2.5 μM ([1]; with 1 nM estradiol, 1 nM E2 used as reference (1)) | Relative Binding Affinity [2] | inhibitory activity against hERα dimerization in combination with estrogen ([3]; combined with estrogen) | induction of hERα dimerization, compound alone ([3]; tested alone) | inhibition effects against MCF-7 cell proliferation [4] | activity at 5 µM ([4]; Homo sapiens, MCF7, 72 h, MCF-7 cells, DMSO = 1, read-out: Relative Cancer Cell Proliferation Effects at 5 μM) [%] | proliferation effects against MDA-MB-231 cells (FIG. 6, words) [5] | agonistic effects against mutant hART877A [6]
CCCCNC(=O)CCCCCCCCCCOCC1Cc2ccccc2CN1C(=O)c1cccc(F)c1 (stereo not shown) [Compound 2] | 0.9 | do not exert any estrogenic effects | 0.75 | 0.287 | weak inhibitory activity | did not induce the dimerization of hERα | slightly lower inhibition effects than compound 6 | 66 | do not inhibit or stimulate the growth | –
C[C@]1(O)CC[C@H]2[C@@H]3CCC4=CC(=O)CCC4=C3C=C[C@@]21C [Compound R1881, R1881] | – | – | – | – | – | – | – | – | – | significant agonism activity
